From patent US20050222266A1, “2-indanylamino derivatives for the therapy of chronic pain” (priority 2002, published 2005)
Structures can show the parent of a compound that is named as a salt.

System: carrageenan-induced thermal hyperalgesia
Experiment: carrageenan-induced thermal hyperalgesia model
Assay type: in vivo, rats
Details: for minimum effective dose: given 3 hours after carrageenan
Description: In the carrageenan-induced thermal hyperalgesia model, male rats were habituated to the rat plantar test apparatus and thermal hyperalgesia was then assessed as described in the paragraph concerning the CCI model. Briefly, after baseline paw withdrawal latencies were determined, animals received an intraplantar injection of carrageenan (100 μl of a 20 mg/ml solution) into the right hind paw. Paw withdrawal latencies (PWL) were reassessed following the same protocol as above 2.5 hours after carrageenan. (this time point represented the start of peak hyperalgesia) to ascertain that hyperalgesia had developed. CHF 3381 (3-10-30-60 mg/kg i.p. and 10-30-60-100 mg/kg p.o.) was then administered 3 hours post carrageenan and paw withdrawal latencies were taken again at 3.5, 4 and 5 hours post carrageenan. Carrageenan induced a significant reduction of paw withdrawal latency in all animals at 2.5 hours following injection. This hyperalgesia was maintained in vehicle-treated animals for at least five hours after carrageenan. The i.p. and p.o. administration of CHF 3381 at 3 hours after carrageenan, dose-dependently antagonised the maintenance of thermal hyperalgesia with respective minimum effective doses of 10 mg/kg i.p. and 30 mg/kg p.o. (Table 5).

NC(=O)CNC1Cc2ccccc2C1 [CHF 3381, N-2(indanyl)-glicinamide hydrochloride]
Paw withdrawal latency (3 mg/kg i.p. at 3 h, 3.5 h after carrageenan): 5.1 ± 0.60 s | Paw withdrawal latency (3 mg/kg i.p. at 3 h, 4.0 h after carrageenan): 6.7 ± 0.64 s | Paw withdrawal latency (3 mg/kg i.p. at 3 h, 5.0 h after carrageenan): 8.3 ± 0.50 s | Paw withdrawal latency (3 mg/kg i.p. group, 0 h (baseline, before carrageenan and dosing)): 11.2 ± 0.92 s | Paw withdrawal latency (3 mg/kg i.p. group, 2.5 h after carrageenan (before dosing at 3 h)): 4.4 ± 0.50 s | Paw withdrawal latency (10 mg/kg i.p. at 3 h, 3.5 h after carrageenan): 7.4 ± 0.50 s | Paw withdrawal latency (10 mg/kg i.p. at 3 h, 4.0 h after carrageenan): 7.8 ± 0.66 s | Paw withdrawal latency (10 mg/kg i.p. at 3 h, 5.0 h after carrageenan): 8.4 ± 0.80 s | Paw withdrawal latency (10 mg/kg i.p. group, 0 h (baseline, before carrageenan and dosing)): 11.8 ± 0.49 s | Paw withdrawal latency (10 mg/kg i.p. group, 2.5 h after carrageenan (before dosing at 3 h)): 5.1 ± 0.50 s | Paw withdrawal latency (10 mg/kg p.o. at 3 h, 3.5 h after carrageenan): 6.65 ± 1.2 s | Paw withdrawal latency (10 mg/kg p.o. at 3 h, 4.0 h after carrageenan): 6.90 ± 0.61 s | Paw withdrawal latency (10 mg/kg p.o. at 3 h, 5.0 h after carrageenan): 7.29 ± 0.83 s | Paw withdrawal latency (10 mg/kg p.o. group, 0 h (baseline, before carrageenan and dosing)): 12.96 ± 1.01 s | Paw withdrawal latency (10 mg/kg p.o. group, 2.5 h after carrageenan (before dosing at 3 h)): 4.79 ± 0.71 s | Paw withdrawal latency (30 mg/kg i.p. at 3 h, 3.5 h after carrageenan): 6.8 ± 0.70 s | Paw withdrawal latency (30 mg/kg i.p. at 3 h, 4.0 h after carrageenan): 8.8 ± 0.80 s | Paw withdrawal latency (30 mg/kg i.p. at 3 h, 5.0 h after carrageenan): 8.1 ± 0.80 s | Paw withdrawal latency (30 mg/kg i.p. group, 0 h (baseline, before carrageenan and dosing)): 11.3 ± 0.84 s | Paw withdrawal latency (30 mg/kg i.p. group, 2.5 h after carrageenan (before dosing at 3 h)): 4.7 ± 0.60 s | Paw withdrawal latency (30 mg/kg p.o. at 3 h, 3.5 h after carrageenan): 7.38 ± 0.65 s | Paw withdrawal latency (30 mg/kg p.o. at 3 h, 4.0 h after carrageenan): 7.61 ± 0.59 s | Paw withdrawal latency (30 mg/kg p.o. at 3 h, 5.0 h after carrageenan): 9.04 ± 0.85 s | Paw withdrawal latency (30 mg/kg p.o. group, 0 h (baseline, before carrageenan and dosing)): 11.98 ± 0.71 s | Paw withdrawal latency (30 mg/kg p.o. group, 2.5 h after carrageenan (before dosing at 3 h)): 5.78 ± 0.93 s | Paw withdrawal latency (60 mg/kg i.p. at 3 h, 3.5 h after carrageenan): 8.0 ± 1.20 s | Paw withdrawal latency (60 mg/kg i.p. at 3 h, 4.0 h after carrageenan): 10.4 ± 1.39 s | Paw withdrawal latency (60 mg/kg i.p. at 3 h, 5.0 h after carrageenan): 10.7 ± 0.90 s | Paw withdrawal latency (60 mg/kg i.p. group, 0 h (baseline, before carrageenan and dosing)): 11.4 ± 0.85 s | Paw withdrawal latency (60 mg/kg i.p. group, 2.5 h after carrageenan (before dosing at 3 h)): 4.1 ± 0.50 s | Paw withdrawal latency (60 mg/kg p.o. at 3 h, 3.5 h after carrageenan): 8.68 ± 1.16 s | Paw withdrawal latency (60 mg/kg p.o. at 3 h, 4.0 h after carrageenan): 8.20 ± 0.85 s | Paw withdrawal latency (60 mg/kg p.o. at 3 h, 5.0 h after carrageenan): 8.34 ± 0.81 s | Paw withdrawal latency (60 mg/kg p.o. group, 0 h (baseline, before carrageenan and dosing)): 11.98 ± 0.67 s | Paw withdrawal latency (60 mg/kg p.o. group, 2.5 h after carrageenan (before dosing at 3 h)): 5.22 ± 0.58 s | reversal of thermal hyperalgesia induced by carrageenan (100 mg/kg p.o. and 60 mg/kg i.p.): nearly complete reversal | Paw withdrawal latency (100 mg/kg p.o. at 3 h, 3.5 h after carrageenan): 10.31 ± 1.20 s | Paw withdrawal latency (100 mg/kg p.o. at 3 h, 4.0 h after carrageenan): 8.72 ± 0.75 s | Paw withdrawal latency (100 mg/kg p.o. at 3 h, 5.0 h after carrageenan): 9.34 ± 0.85 s | Paw withdrawal latency (100 mg/kg p.o. group, 0 h (baseline, before carrageenan and dosing)): 13.24 ± 0.75 s | Paw withdrawal latency (100 mg/kg p.o. group, 2.5 h after carrageenan (before dosing at 3 h)): 5.52 ± 0.96 s | minimum effective dose (i.p.): 10 mg/kg | minimum effective dose (p.o.): 30 mg/kg
